In paper PMC7031696 (Cell chemical biology, 2019):
Read-outs that look alike come from different tables or passages of the source.

Tests used:
[1] = test system: Plasmodium falciparum 3D7-A10 parasites; experiment: Stage specificity assay (8-h exposure of synchronized stages, IC50^8h); type: cell-based; conditions: for IC50: Plasmodium falciparum
[2] = test system: asynchronous 3D7-A10 parasite cultures; experiment: Standard 72-h exposure asexual blood stage susceptibility assay (IC50^72h); type: cell-based, Plasmodium falciparum; conditions: Plasmodium falciparum, 3D7, 72 h, read-out: Overall (72hr assay) Mean IC50 (IC50^72h)
[3] = test system: 3D7-MR4 trophozoite parasite-infected RBCs; experiment: Metabolomic profiling (hydrophilic metabolite changes, UHPLC-MS); type: cell-based, Plasmodium falciparum

CN(C)c1ccc2nc3ccc(=[N+](C)C)cc-3sc2c1 [Methylene blue, reference compound]
Ratio lowest IC50 8hr/IC50 72hr ([1]; 3D7-A10): 1.8
IC50 ([1]; 3D7, read-out: Early rings Mean IC50 (IC50^8h), 8-h exposure 0–8 hr, 3D7-A10, survival at 60 h): 3.2 nM
IC50 ([1]; 3D7, read-out: Early trophozoites Mean IC50 (IC50^8h), 8-h exposure 16–24 hr, 3D7-A10, survival at 60 h): 5.9 nM
IC50 ([1]; 3D7, read-out: Late rings Mean IC50 (IC50^8h), 8-h exposure 8–16 hr, 3D7-A10, survival at 60 h): 13.3 nM
IC50 ([1]; 3D7, read-out: Late trophozoites Mean IC50 (IC50^8h), 8-h exposure 24–32 hr, 3D7-A10, survival at 60 h): 8.3 nM
IC50 ([1]; 3D7, read-out: Schizonts Mean IC50 (IC50^8h), 8-h exposure 32–40 hr, 3D7-A10, survival at 60 h): 64.8 nM
Stage of peak activity (Figure 6) ([1]; period when the parasite was most susceptible (lowest IC50^8h)): rings and trophozoites
IC50 [2]: 1.8 nM
changes within the set of metabolites detected (low fold change group) ([3]; 10 × IC50^72h, 2.5 hr, trophozoites): did not induce major changes
Log2(fold changes) 3-phosphoglycerate ([3]; metabolite 3-phosphoglycerate, log2 fold change): 0.1717
Log2(fold changes) 4-Pyridoxic acid ([3]; metabolite 4-Pyridoxic acid, log2 fold change): 0.0000
Log2(fold changes) 4-aminobutyrate ([3]; metabolite 4-aminobutyrate, log2 fold change): -0.1073
Log2(fold changes) 4-phosphopantetheine ([3]; metabolite 4-phosphopantetheine, log2 fold change): 0.0000
Log2(fold changes) 4-phosphopantothenate ([3]; metabolite 4-phosphopantothenate, log2 fold change): -0.3089
Log2(fold changes) 5-aminopentanoic acid ([3]; metabolite 5-aminopentanoic acid, log2 fold change): 0.0000
Log2(fold changes) 5-methyl-THF ([3]; metabolite 5-methyl-THF, log2 fold change): 0.0000
Log2(fold changes) 5-phosphoribosyl-1-pyrophosphate ([3]; metabolite 5-phosphoribosyl-1-pyrophosphate, log2 fold change): 0.7627
Log2(fold changes) 6-phospho-D-gluconate ([3]; metabolite 6-phospho-D-gluconate, log2 fold change): 0.0184
Log2(fold change) HVDD ([3]; metabolite HVDD): 0.0000
Log2(fold change) Hydroxyisocaproic acid ([3]; metabolite Hydroxyisocaproic acid): 0.0000
Log2(fold change) IDP ([3]; metabolite IDP): 0.2471
Log2(fold change) IMP ([3]; metabolite IMP): -0.1535
Log2(fold change) Inositol ([3]; metabolite Inositol): 0.0000
Log2(fold change) Isopentyl-PP ([3]; metabolite Isopentyl-PP): 0.0000
Log2(fold change) L-arginino-succinate ([3]; metabolite L-arginino-succinate): 0.0000
Log2(fold change) LD ([3]; metabolite LD): -0.0546
Log2(fold change) Myristoyl/tetradecanoyl-CoA ([3]; metabolite Myristoyl/tetradecanoyl-CoA): 0.0000
Log2(fold change) N-Acetyl-L-alanine ([3]; metabolite N-Acetyl-L-alanine): 0.0660
Log2(fold change) N-acetyl-L-ornithine ([3]; metabolite N-acetyl-L-ornithine): -0.0972
Log2(fold change) N-acetyl-glucosamine-1/6-phosphate ([3]; metabolite N-acetyl-glucosamine-1/6-phosphate): -0.3026
Log2(fold change) N-acetyl-glutamate ([3]; metabolite N-acetyl-glutamate): -0.1200
Log2(fold change) N-acetyl-glutamine ([3]; metabolite N-acetyl-glutamine): 0.0000
Log2(fold change) N-carbamoyl-L-aspartate ([3]; metabolite N-carbamoyl-L-aspartate): -0.4399
Log2(fold change) NAD+ ([3]; metabolite NAD+): -0.1775
Log2(fold change) NADH ([3]; metabolite NADH): 0.6869
Log2(fold change) NADP+ ([3]; metabolite NADP+): 0.0190
Log2(fold change) NADPH ([3]; metabolite NADPH): 0.5257
Log2(fold change) O-acetyl-L-serine ([3]; metabolite O-acetyl-L-serine): 0.0000
Log2(fold change) Octoluse 8/1P ([3]; metabolite Octoluse 8/1P): -0.1481
Log2(fold change) Octoluse Bisphosphate ([3]; metabolite Octoluse Bisphosphate): -0.0868
Log2(fold change) PD ([3]; metabolite PD): -0.1726
Log2(fold change) PE ([3]; metabolite PE): -0.0321
Log2(fold change) PEE ([3]; metabolite PEE): 0.0787
Log2(fold change) PEEK ([3]; metabolite PEEK): 0.2857
Log2(fold change) PVNF ([3]; metabolite PVNF): 0.3021
Log2(fold change) Pyroglutamic acid ([3]; metabolite Pyroglutamic acid): -0.1430
Log2(fold change) Pyrophosphate ([3]; metabolite Pyrophosphate): 0.0000
Log2(fold change) Ribose-5-phosphate ([3]; metabolite Ribose-5-phosphate): 0.0744
Log2(fold change) S-adenosyl-L-homocysteine ([3]; metabolite S-adenosyl-L-homocysteine): -0.2409
Log2(fold change) S-adenosyl-L-methioninamine ([3]; metabolite S-adenosyl-L-methioninamine): 0.0000
Log2(fold change) S-adenosyl-L-methionine ([3]; metabolite S-adenosyl-L-methionine): 0.0000
Log2(fold change) S-methyl-5'-thioadenosine ([3]; metabolite S-methyl-5'-thioadenosine): -0.0807
Log2(fold change) SD ([3]; metabolite SD): -0.0525
Log2(fold change) SDL ([3]; metabolite SDL): 0.0000
Log2(fold change) SID ([3]; metabolite SID): 0.0000
Log2(fold change) Sedoheptulose bisphosphate ([3]; metabolite Sedoheptulose bisphosphate): 0.0024
Log2(fold change) Thiamine pyrophosphate ([3]; metabolite Thiamine pyrophosphate): -0.2290
Log2(fold changes) UDP-D-glucose ([3]; metabolite UDP-D-glucose, log2 fold change): -0.0680
Log2(fold changes) UDP-D-glucuronate ([3]; metabolite UDP-D-glucuronate, log2 fold change): 0.0789
Log2(fold changes) UDP-N-acetyl-glucosamine ([3]; metabolite UDP-N-acetyl-glucosamine, log2 fold change): -0.1825
Log2(fold changes) UDP ([3]; metabolite UDP, log2 fold change): -0.3881
Log2(fold changes) UMP ([3]; metabolite UMP, log2 fold change): -0.2463
Log2(fold changes) UTP ([3]; metabolite UTP, log2 fold change): -0.0408
Log2(fold change) hydroxyphenylpyruvate ([3]; metabolite hydroxyphenylpyruvate): 0.0000
Log2(fold change) hydroxyproline/Aminolevulinate ([3]; metabolite hydroxyproline/Aminolevulinate): 0.0000
Log2(fold change) hypoxanthine ([3]; metabolite hypoxanthine): 0.0000
Log2(fold change) indole ([3]; metabolite indole): 0.0000
Log2(fold change) inosine ([3]; metabolite inosine): -0.4017
Log2(fold change) isoleucine ([3]; metabolite isoleucine): 0.7210
Log2(fold change) lactate ([3]; metabolite lactate): -0.1398
Log2(fold change) leucine ([3]; metabolite leucine): 0.2614
Log2(fold change) lysine ([3]; metabolite lysine): -0.0829
Log2(fold change) malate ([3]; metabolite malate): -0.0400
Log2(fold change) maleic acid ([3]; metabolite maleic acid): -0.0220
Log2(fold change) methionine ([3]; metabolite methionine): 0.1258
Log2(fold change) myo-inositol ([3]; metabolite myo-inositol): -0.2003
Log2(fold change) nicotinamide mononucleotide ([3]; metabolite nicotinamide mononucleotide): -0.1519
Log2(fold change) nicotinate ([3]; metabolite nicotinate): -0.3017
Log2(fold change) ornithine ([3]; metabolite ornithine): 0.0000
Log2(fold change) orotate ([3]; metabolite orotate): -0.5750
Log2(fold change) orotidine-5'-phosphate ([3]; metabolite orotidine-5'-phosphate): -0.6269
Log2(fold change) oxaloacetate ([3]; metabolite oxaloacetate): 0.0000
Log2(fold change) p-aminobenzoate ([3]; metabolite p-aminobenzoate): 0.0000
Log2(fold change) p-hydroxybenzoate ([3]; metabolite p-hydroxybenzoate): 0.0000
Log2(fold change) pantothenate ([3]; metabolite pantothenate): -1.6576
Log2(fold change) phenylalanine ([3]; metabolite phenylalanine): 0.0379
Log2(fold change) phenylpyruvate ([3]; metabolite phenylpyruvate): 0.0000
Log2(fold change) phosphoenolpyruvate ([3]; metabolite phosphoenolpyruvate): 0.1672
Log2(fold change) prephenate ([3]; metabolite prephenate): 0.0000
Log2(fold change) proline ([3]; metabolite proline): 0.1190
Log2(fold change) pyridoxine ([3]; metabolite pyridoxine): -0.1182
Log2(fold change) pyruvate ([3]; metabolite pyruvate): -0.0447
Log2(fold change) riboflavin ([3]; metabolite riboflavin): -0.0900
Log2(fold change) ribose ([3]; metabolite ribose): 0.0000
Log2(fold change) ribose-phosphate ([3]; metabolite ribose-phosphate): -0.1993
Log2(fold change) ribulose-5-phosphate ([3]; metabolite ribulose-5-phosphate): -0.1201
Log2(fold change) serine ([3]; metabolite serine): -0.0692
Log2(fold change) sn-glycerol-3-phosphate ([3]; metabolite sn-glycerol-3-phosphate): 0.0549
Log2(fold change) succinate/Methylmalonic acid ([3]; metabolite succinate/Methylmalonic acid): 0.4289
Log2(fold change) succinyl-CoA/methylmalonyl-CoA ([3]; metabolite succinyl-CoA/methylmalonyl-CoA): 0.0000
Log2(fold change) taurine ([3]; metabolite taurine): 0.1250
Log2(fold change) thiamine ([3]; metabolite thiamine): -0.2233
Log2(fold change) threonine/homoserine ([3]; metabolite threonine/homoserine): -0.1021
Log2(fold change) thymidine ([3]; metabolite thymidine): 0.0000
Log2(fold changes) thymine ([3]; metabolite thymine, log2 fold change): 0.0000
Log2(fold changes) trehalose-6-Phosphate ([3]; metabolite trehalose-6-Phosphate, log2 fold change): 0.0000
Log2(fold changes) tryptophan ([3]; metabolite tryptophan, log2 fold change): 0.0214
Log2(fold changes) tyrosine ([3]; metabolite tyrosine, log2 fold change): 0.0876
Log2(fold changes) uridine ([3]; metabolite uridine, log2 fold change): -0.4227
